Reference: patent US5696245A, “Fructofuranosyl substituted polymers and methods for their production” (The University of Montana, priority 1995, dated 1997)
In brackets after ≈: the same amount, converted by molar mass.

Columns and labels:
[1] = Solubility of Estriol in water in presence of CD's and Fru-CD's; type: physicochemical
Experimental: (§1) The solubilities of 2 and 4 were determined as were their respective abilities to solubilize a slightly soluble drug.
Solubility of Estriol in Water in
Presence of CD's and Fru-CD's at 20° C.
Solubility in 1.5 × 10^-2 M CD

[2] = Solubility in water of CD's and Fru-CD's; type: physicochemical; details: 21° C. ± 1° C.
Experimental: as §1
^a determined at 21° C. ± 1° C.

invertase [3] = test: Hydrolysis by invertase; type: biochemical; details: conditions of complete sucrose hydrolysis in 30 minutes
Excerpt: (§2) No inhibition was manifested by the parent CD's. […] Furthermore, provided that the Fru-α-CD is capable of transport to regions of plants or of plant cells, where invertase action occurs, then it is a potent plant growth regulator.

invertase [4] = test: Inhibition of invertase (hydrolysis of sucrose); type: biochemical; details: for inhibition of invertase: 1:1 mole ratio with sucrose
Excerpt: Reference is now made to the drawings accompanying the application wherein the sole Figure is a graph showing the action of invertase on sucrose in the presence of cyclodextrins and fructosyl cyclodextrins.
as §2

Solubility in water [2] [mg/mL]	hydrolysis by invertase (invertase [3])	SMILES	inhibition of invertase (invertase [4])	other results
126 (≈ 130 mM)		OC[C@H]1O[C@@H]2O[C@H]3[C@H](O)[C@@H](O)[C@@H](O[C@H]4[C@H](O)[C@@H](O)[C@@H](O[C@H]5[C@H](O)[C@@H](O)[C@@H](O[C@H]6[C@H](O)[C@@H](O)[C@@H](O[C@H]7[C@H](O)[C@@H](O)[C@@H](O[C@H]1[C@H](O)[C@H]2O)O[C@@H]7CO)O[C@@H]6CO)O[C@@H]5CO)O[C@@H]4CO)O[C@@H]3CO [α-CD, cyclohexaamylose, reference compound]		
20 (≈ 17.6 mM)		OC[C@H]1O[C@@H]2O[C@H]3[C@H](O)[C@@H](O)[C@@H](O[C@H]4[C@H](O)[C@@H](O)[C@@H](O[C@H]5[C@H](O)[C@@H](O)[C@@H](O[C@H]6[C@H](O)[C@@H](O)[C@@H](O[C@H]7[C@H](O)[C@@H](O)[C@@H](O[C@H]8[C@H](O)[C@@H](O)[C@@H](O[C@H]1[C@H](O)[C@H]2O)O[C@@H]8CO)O[C@@H]7CO)O[C@@H]6CO)O[C@@H]5CO)O[C@@H]4CO)O[C@@H]3CO [β-CD, cycloheptaamylose, reference compound]		

The remaining lines, values behind:

SMILES	Solubility in water [2] [mg/mL]	hydrolysis by invertase (invertase [3])	inhibition of invertase (invertase [4])	other results
C[C@]12CC[C@@H]3c4ccc(O)cc4CC[C@H]3[C@@H]1C[C@@H](O)[C@@H]2O [Estriol, reference compound]				solubility ([1]; water without CD, 20° C.): 0.023 mg/mL
OC[C@H]1O[C@@](CO)(OC[C@H]2O[C@@H]3O[C@H]4[C@H](O)[C@@H](O)[C@@H](O[C@H]5[C@H](O)[C@@H](O)[C@@H](O[C@H]6[C@H](O)[C@@H](O)[C@@H](O[C@H]7[C@H](O)[C@@H](O)[C@@H](O[C@H]8[C@H](O)[C@@H](O)[C@@H](O[C@H]9[C@H](O)[C@@H](O)[C@@H](O[C@H]2[C@H](O)[C@H]3O)O[C@@H]9CO)O[C@@H]8CO)O[C@@H]7CO)O[C@@H]6CO)O[C@@H]5CO)O[C@@H]4CO)[C@@H](O)[C@@H]1O [compound 2, 6-O-(β-D-fructofuranosyl) cycloheptaamylose]	1136 (≈ 876 mM)	unaffected by invertase	demonstrated inhibition of invertase	ability to solubilize sparingly soluble compounds by inclusion, vs parent cyclodextrins ([1]; general description): increased ability to solubilize
OC[C@H]1O[C@@](CO)(OC[C@H]2O[C@@H]3O[C@H]4[C@H](O)[C@@H](O)[C@@H](O[C@H]5[C@H](O)[C@@H](O)[C@@H](O[C@H]6[C@H](O)[C@@H](O)[C@@H](O[C@H]7[C@H](O)[C@@H](O)[C@@H](O[C@H]8[C@H](O)[C@@H](O)[C@@H](O[C@H]2[C@H](O)[C@H]3O)O[C@@H]8CO)O[C@@H]7CO)O[C@@H]6CO)O[C@@H]5CO)O[C@@H]4CO)[C@@H](O)[C@@H]1O [compound 4, 6-O-(β-D-fructofuranosyl) cyclohexaamylose]	1054 (≈ 929 mM)	unaffected by invertase	to a much greater extent, 4 demonstrated inhibition of invertase	type of invertase inhibition (invertase [4]; hydrolysis of sucrose by invertase, detailed kinetic study still required): appears to be a non-reversible inhibitor
OC[C@H]1O[C@@](CO)(O[C@H]2O[C@H](CO)[C@@H](O)[C@H](O)[C@H]2O)[C@@H](O)[C@@H]1O [sucrose, reference compound]		complete hydrolysis		
